Data from ChEMBL document CHEMBL2086337, “Inhibition of monoamine oxidase by 8-phenoxymethylcaffeine derivatives” (Bioorg Med Chem, 2012).

Experiments:
[1] = target: T1, Amine oxidase [flavin-containing] A (Homo sapiens, UniProt P21397); experiment: Inhibition of human recombinant MAO-A expressed in baculovirus infected insect cells using kynuramine as substrate after 20 mins by fluorescence spectrophotometry
T1 sequence (P21397 whole entry): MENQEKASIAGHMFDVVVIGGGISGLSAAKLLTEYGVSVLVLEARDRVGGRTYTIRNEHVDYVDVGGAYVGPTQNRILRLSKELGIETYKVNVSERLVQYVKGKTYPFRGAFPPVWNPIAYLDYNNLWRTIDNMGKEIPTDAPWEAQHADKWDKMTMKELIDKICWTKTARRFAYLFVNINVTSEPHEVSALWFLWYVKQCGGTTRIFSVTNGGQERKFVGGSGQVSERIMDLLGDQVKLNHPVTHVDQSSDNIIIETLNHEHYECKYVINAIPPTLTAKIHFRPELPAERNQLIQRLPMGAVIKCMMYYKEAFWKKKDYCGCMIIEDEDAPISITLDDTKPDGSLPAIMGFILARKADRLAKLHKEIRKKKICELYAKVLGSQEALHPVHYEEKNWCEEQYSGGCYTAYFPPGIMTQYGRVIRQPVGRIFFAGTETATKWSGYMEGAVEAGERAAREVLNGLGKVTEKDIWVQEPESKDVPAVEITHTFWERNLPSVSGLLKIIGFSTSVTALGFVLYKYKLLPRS

[2] = organism: Homo sapiens; experiment: Selectivity index, ratio of IC50 for human recombinant MAO-A to IC50 for human recombinant MAO-B
[3] = target: T2, Amine oxidase [flavin-containing] B (Homo sapiens, UniProt P27338); experiment: Inhibition of human recombinant MAO-B expressed in baculovirus infected insect cells using kynuramine as substrate after 20 mins by fluorescence spectrophotometry
T2 sequence (P27338 whole entry): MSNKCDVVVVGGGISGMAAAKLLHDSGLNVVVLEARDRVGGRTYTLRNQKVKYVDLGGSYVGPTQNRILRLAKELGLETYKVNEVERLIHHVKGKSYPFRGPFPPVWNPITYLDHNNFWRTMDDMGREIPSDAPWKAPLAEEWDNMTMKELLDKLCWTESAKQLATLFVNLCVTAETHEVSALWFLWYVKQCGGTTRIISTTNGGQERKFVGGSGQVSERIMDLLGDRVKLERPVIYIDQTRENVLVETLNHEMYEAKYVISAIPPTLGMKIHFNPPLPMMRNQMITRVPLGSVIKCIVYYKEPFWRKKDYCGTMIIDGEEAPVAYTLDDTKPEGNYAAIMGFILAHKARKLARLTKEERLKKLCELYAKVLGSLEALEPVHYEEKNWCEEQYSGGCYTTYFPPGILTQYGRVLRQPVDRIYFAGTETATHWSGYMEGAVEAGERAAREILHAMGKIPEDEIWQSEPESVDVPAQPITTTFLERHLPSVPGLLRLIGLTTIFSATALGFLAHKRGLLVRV

[4] = target: T1, Amine oxidase [flavin-containing] A; experiment: Inhibition of human recombinant MAO-A expressed in baculovirus infected insect cells using kynuramine as substrate after 20 mins by horseradish peroxidase-coupled assay
[5] = target: T2, Amine oxidase [flavin-containing] B; experiment: Inhibition of human recombinant MAO-B expressed in baculovirus infected insect cells using kynuramine as substrate after 20 mins by horseradish peroxidase-coupled assay
[6] = target: T2, Amine oxidase [flavin-containing] B; experiment: Reversible inhibition of human recombinant MAO-B expressed in baculovirus infected insect cells using kynuramine as substrate at 9.7 uM incubated up to 60 mins prior to substrate addition measured after 15 mins by fluorescence spectrophotometry; conditions: 0.25 h
[7] = target: T1, Amine oxidase [flavin-containing] A; experiment: Reversible inhibition of human recombinant MAO-A expressed in baculovirus infected insect cells using kynuramine as substrate at 9.7 uM incubated up to 60 mins prior to substrate addition measured after 15 mins by fluorescence spectrophotometry; conditions: 0.25 h
[8] = target: T2, Amine oxidase [flavin-containing] B; experiment: Competitive inhibition of human recombinant MAO-B expressed in baculovirus infected insect cells using kynuramine as substrate by Lineweaver-Burk plot analysis
[9] = target: T2, Amine oxidase [flavin-containing] B; experiment: Reversible inhibition of human recombinant MAO-B expressed in baculovirus infected insect cells using kynuramine as substrate at 0.3 uM incubated up to 60 mins prior to substrate addition measured after 15 mins by fluorescence spectrophotometry; conditions: 0.25 h
[10] = target: T1, Amine oxidase [flavin-containing] A; experiment: Reversible inhibition of human recombinant MAO-A expressed in baculovirus infected insect cells using kynuramine as substrate at 0.3 uM incubated up to 60 mins prior to substrate addition measured after 15 mins by fluorescence spectrophotometry; conditions: 0.25 h

Row | IC50 [1] | Ratio IC50 [2] | IC50 [3] | IC50 [5] | IC50 ([4]; read-out: IC50) | also measured | SMILES
1 | 51.8 µM | 3 | 17.9 µM |  |  |  | Cc1cccc(SCc2nc3c(c(=O)n(C)c(=O)n3C)n2C)c1
2 | 44.7 µM | 2 | 18.4 µM |  |  |  | CCOc1cccc(SCc2nc3c(c(=O)n(C)c(=O)n3C)n2C)c1
3 |  |  |  | 1960 nM |  | IC50 [4]: Not Active | COc1cccc(OCc2nc3c(c(=O)n(C)c(=O)n3C)n2C)c1
4 |  | 4 |  | 5780 nM | 21.1 µM |  | Cn1c(=O)c2c(nc(COc3ccccc3)n2C)n(C)c1=O
5 |  | 7 |  | 641 nM | 4.59 µM | inhibition (INH) [6]: Active; inhibition (INH) [7]: Active | Cn1c(=O)c2c(nc(COc3cccc(C(F)(F)F)c3)n2C)n(C)c1=O
6 | 23.8 µM | 5 | 4.9 µM |  |  |  | Cn1c(=O)c2c(nc(CSc3cccc(Br)c3)n2C)n(C)c1=O
7 | 66.2 µM | 3 | 23.4 µM |  |  |  | Cn1c(=O)c2c(nc(CSc3ccccc3)n2C)n(C)c1=O
8 |  | 0.9 |  | 124000 nM | 117 µM |  | Cn1c(=O)c2c(nc(CCSc3ccc(Br)cc3)n2C)n(C)c1=O
9 |  |  |  | 334 nM |  | IC50 [4]: Not Active | Cn1c(=O)c2c(nc(COc3cccc(Cl)c3)n2C)n(C)c1=O
10 |  | 57 |  | 189 nM | 10.7 µM |  | Cn1c(=O)c2c(nc(COc3ccc(Br)cc3)n2C)n(C)c1=O
11 | 20.8 µM | 5 | 4.05 µM |  |  |  | Cn1c(=O)c2c(nc(CSc3ccc(Br)cc3)n2C)n(C)c1=O
12 |  | 82 |  | 250 nM | 20.4 µM |  | Cn1c(=O)c2c(nc(COc3ccc(Cl)cc3)n2C)n(C)c1=O
13 | 19.4 µM | 3 | 6.12 µM |  |  |  | Cn1c(=O)c2c(nc(CSc3cccc(Cl)c3)n2C)n(C)c1=O
14 |  | 6 |  | 64100 nM | 372 µM |  | Cn1c(=O)c2c(nc(CCSc3cccc(Br)c3)n2C)n(C)c1=O
15 | 31.6 µM | 5 | 6.91 µM |  |  |  | Cn1c(=O)c2c(nc(CSc3ccc(Cl)cc3)n2C)n(C)c1=O
16 | 41.3 µM | 5 | 8.42 µM |  |  |  | COc1cccc(SCc2nc3c(c(=O)n(C)c(=O)n3C)n2C)c1
17 |  | 8 |  | 1610 nM | 13.2 µM |  | Cn1c(=O)c2c(nc(COc3cccc(F)c3)n2C)n(C)c1=O
18 |  | 230 |  | 148 nM | 34 µM | inhibition (INH) [8]: Active; inhibition (INH) [9]: Active; inhibition (INH) [10]: Active | Cn1c(=O)c2c(nc(COc3cccc(Br)c3)n2C)n(C)c1=O
19 |  | 18 |  | 7790 nM | 142 µM |  | Cn1c(=O)c2c(nc(CCSc3ccc(Cl)cc3)n2C)n(C)c1=O
20 |  |  |  | 5670 nM |  | IC50 [4]: Not Active | Cn1c(=O)c2c(nc(CCSc3cccc(Cl)c3)n2C)n(C)c1=O
21 | 50.1 µM | 2 | 22.3 µM |  |  |  | Cn1c(=O)c2c(nc(CSc3cccc(F)c3)n2C)n(C)c1=O
22 |  | 1.3 |  | 108000 nM | 139 µM |  | Cn1c(=O)c2c(nc(CCSc3ccccc3)n2C)n(C)c1=O
23 |  | 15 |  | 1230 nM | 18.8 µM |  | Cc1cccc(OCc2nc3c(c(=O)n(C)c(=O)n3C)n2C)c1
24 |  | 10 |  | 825 nM | 8.22 µM |  | Cn1c(=O)c2c(nc(COc3ccc(F)cc3)n2C)n(C)c1=O
